The values that follow come from US7662936B2, “Mass spectrometry of antibody conjugates” (priority 2004, dated 2010).

The structures appear in SMILES notation. Where a SMILES comes first, the peptide text is derived from it. [ ]: non-standard residue; d: D form. The star is where a group is joined. Dolaproine = CO[C@@H]([C@@H]1CCCN1)[C@@H](C)C(=O)O; Dil = CC[C@H](C)[C@H](NC)[C@@H](CC(=O)O)OC; X1 = C[C@@H](N*)[C@@H](O)c1ccccc1; NMeV = CN[C@H](C(=O)O)C(C)C

Series [1] can be described thus: Rat study of trastuzumab-MC-val-cit-PAB-MMAE (Example 8): clinical observations, mortality, body weight. Type of series: in vivo, Sprague-Dawley rats. As for the experimental part: Groups 2 and 3 were administered a preparation of Tr-MC-val-cit-PAB-MMAE with average drug loading of 8.7 MMAE/Tr. Groups 4, 5, and 6 were administered a preparation of Tr-MC-val-cit-PAB-MMAE with average drug loading of 5.3 MMAE/Tr. […] Group 6 received the highest dose of 4209 μg MMAE/m^2.
The dose solutions were administered by a single intravenous bolus tail-vein injection on Study Day 1 at a dose volume of 10 ml/kg. […] Body weights of the animals were measured pre-dose on Study Day 1 and daily thereafter. Whole blood was collected into EDTA containing tubes for hematology parameters and complete blood counts. Whole blood was collected into serum separator tubes for clinical chemistry parameters. Blood samples were collected pre-dose on […], and on Study Days 3 and 5. Whole blood was also collected into lithium heparin containing tubes and the plasma was frozen at −70° C. for later analysis.

The conditions of series [2]: more cytotoxic; cited from earlier work.
The conditions of series [3]: cited from earlier work.

In the case of `CC[C@H](C)[C@@H]([C@@H](CC(=O)N1CCC[C@H]1[C@H](OC)[C@@H](C)C(=O)N[C@H](C)[C@@H](O)c1ccccc1)OC)N(C)C(=O)[C@@H](NC(=O)[C@@H](NC)C(C)C)C(C)C` [MMAE] (H-[NMeV]V[Dil][Dolaproine]-X1), in series [1] (Group 7, free MMAE 0.206 mg/kg, single iv bolus, 6 female rats), the “appearance of animals throughout the 5 days on study” value is recorded as “appeared healthy”. For the same compound, the “changes in body weight” value in series [1] (groups 2, 4 and 7, comparable amounts of MMAE (840 ug/m^2)) was “comparable changes in body weight”.

Turning to `COc1cc2cc(c1Cl)N(C)C(=O)C[C@H](OC(=O)[C@H](C)N(C)C(C)=O)[C@]1(C)O[C@H]1[C@H](C)[C@@H]1C[C@@](O)(NC(=O)O1)[C@H](OC)/C=C/C=C(\C)C2` [Maytansine], the “cytotoxicity relative to conventional cancer chemotherapeutic agents like methotrexate, daunorubicin, and vincristine” value in series [2] is 100-to 1000 fold. Besides, the “adverse effects leading to discontinuation of clinical trials” value in series [3] is “serious adverse effects on the central nervous system and gastrointestinal system”.
